Results reported in patent US8999315B2, “Bis-quaternary ammonium salt corrosion inhibitors” (Nalco Company, priority 2004, dated 2015).

Key:
[1] = Wheelbox Test (corrosion of coupons in CO2-purged brine/hydrocarbon); details: actives only, 24 hours at 176° F., brine/LVT 200, 500 ppm acetic acid
Procedure: Cleaned and pre-weighed coupons are put into bottles containing a mixture of brine (180 mL), and hydrocarbon (LVT 200, 20 mL) and 500 ppm of acetic acid and the resulting mixture is purged with carbon dioxide. An increasing amount of tested inhibitor (5, 10, 25 and 50 ppm) is added into the bottles, the air space in the bottles is purged with CO2 mixture and immediately capped to avoid air contamination. In addition to those bottles that are dosed with inhibitor, three bottles remain untreated. The complete set of capped test bottles is set on the rotating wheel, and run for 24 hours at 176° F. On conclusion of the test, the bottles are removed and allowed to cool to room temperature. The bottles are then uncapped and the coupons are removed, cleaned, dried and re-weighed. Corrosion rate and protection efficiency are then calculated by comparing the mass loss of inhibited coupons to those of the blanks.
Comparative test results for representative bis-quaternary ammonium salts prepared according to the methods of Examples 1 and 2 and a commercially available quaternary ammonium salt are shown in Table 1.

[2] = test system: sulfate-reducing bacteria; assay: Biostatic Assay (NACE standard, serial dilution); format: cell-based; details: actives only
Procedure: The biostatic properties of representative bis-quaternary ammonium salts are characterized according to the current NACE standard—NACE TMO194094. Viable organisms are cultured from aqueous field samples in iron-rich media purchased from Commercial Microbiology (Houston, Tex.). Stock solutions of the viable organisms in ferrous media are serially diluted in triplicate. Black iron sulfide precipitates indicate micobial growth (of sulfate-reducing bacteria). Clear media solutions indicate complete cell death. Pure media solutions are used as controls and compared against media spiked with 5 to 500 ppm of a test compound. Additives that require increased dilutions to attain complete cell death […], relative to the standard. Those compounds that required fewer dilutions are relatively biostatic.
Comparative test results for representative bis-quaternary ammonium salts prepared according to the methods of Examples 1 and 2 and commercially available quaternary ammonium salts A and B are shown in Table 3.

[3] = Field Trial, corrosion rate by electrical resistance MicroCor probes in a production line; details: corrosion inhibitor formulations, gas/oil/brine multiphase flow
Text: Field corrosion rate data are obtained from a production line in an Alaskan field that is equipped with high sensitivity electrical resistance MicroCor probes (Rohrback Cosasco Systems, Santa Fe Springs, Calif.). The sensing element of the probe, positioned into gas/oil/brine multiphase flow, reads a cumulative metal loss that is transformed into corrosion rate. Once an uninhibited corrosion rate baseline has been established, corrosion inhibitor formulations are incrementally injected upstream of the probe over a period of thirty hours. The resulting drop in corrosion rates are used to calculates protection efficiency and establish the relative rankings of corrosion inhibitor formulations.
Comparative test results for representative bis-quaternary ammonium salts prepared according to the methods of Examples 1 and 2, a commercially available quaternary ammonium salt and a commercially available alkylbenzyldimethylammonium salt are shown in Table 2.

Compound	Percent Protection ([1]; 5 ppm inhibitor) [%]	Percent Protection ([1]; 10 ppm inhibitor) [%]	Percent Protection ([1]; 25 ppm inhibitor) [%]	Percent Protection ([1]; 50 ppm inhibitor) [%]	log reduction of SRB growth ([2]; 10 ppm) [log]	log reduction of SRB growth ([2]; 25 ppm) [log]	log reduction of SRB growth ([2]; 100 ppm) [log]	Percent Protection ([3]; 3 ppm) [%]	Percent Protection ([3]; 6 ppm) [%]	Percent Protection ([3]; 11 ppm) [%]	Percent Protection ([3]; 22 ppm) [%]	Percent Protection ([3]; 44 ppm) [%]
CCCCCCCCCCCC[N+](C)(C)CC(O)C[N+](C)(C)CCCCCCCCCCCC.CCCCCCCCCCCC[N+](C)(C)CC(O)C[N+](C)(C)CCCCCCCCCCCC.O=S(=O)([O-])[O-].[Cl-].[Cl-] [Example 1]	65	81	92	91	6	6	6	60.5	87.6	89.8	91.8	98.3
CCCCCCCCC=CCCCCCCCCN(CC(O)C[N+](C)(C)CCCCCCCCCCCC)CC(O)C[N+](C)(C)CCCCCCCCCCCC.[Cl-].[Cl-] (stereo not drawn) [Example 2]	21	73	86	89	0	6	6	76.2	96.2	95.3	97.8	98.0
